{"source": "patent US20060281735A1", "about": "“Antipsychotic combination therapies and compositions of an alpha-2 adrenergic receptor antagonist and an atypical antipsychotic neuroleptic” (priority 2002, published 2006)", "key": {"[1]": {"target": "α2 receptor", "conditions": "idazoxan; stated with Litman et al. 1996; cited from earlier work"}, "[2]": {"test_system": "α2 autoreceptors", "conditions": "presynaptic level; antagonism of clonidine; cited from earlier work"}, "[3]": {"test_system": "α2 adrenoreceptors", "conditions": "binding studies; cited from earlier work"}, "[4]": {"test_system": "Wistar rats", "assay": "Conditioned avoidance response (CAR) behavior in rats", "assay_type": "in vivo", "conditions": "rat CAR; 2.5 mg/kg with idazoxan versus about 5 mg/kg alone", "excerpt": "Adult, male Wistar rats, 200-225 g (B & K Universal, Sollentuna, Sweden) were used. The animals were housed under standard laboratory conditions, on a reversed light/dark cycle (lights off 08:00 am), and allowed 1 week of adaptation to laboratory conditions before being used in experiments. Food and water were available ad libitum.\nRats were trained and tested in a conventional, manually operated two-way active avoidance (shuttlebox) apparatus connected to a high resistance power supply. The box was divided into two compartments of equal size by a partition with one opening. Upon presentation of the 80 dB white noise conditioned stimulus (CS), the animals had 10 seconds to move from one compartment of the shuttlebox into the other. If the rat remained in the same compartment for more than 10 seconds, an intermittent electric shock (approx. 0.2 mA of 0.5-sec duration; intershock interval 2.5 sec), the unconditioned stimulus (UCS), was presented in the grid floor until an escape was performed. […] Intertrial intervals varied at random between 20 and 40 seconds. The following variables were recorded: avoidance (response to CS within 10 sec); escape (response to CS+UCS); escape failures (failure to respond); and intertrial crosses. The animals were trained for 3 consecutive days. Training sessions were run over 15 minutes. […]"}, "[5]": {"test_system": "α2-adrenergic receptor versus D2 receptor", "conditions": "literature; cited from earlier work"}, "[6]": {"target": "T1, D2 dopamine receptor (Homo sapiens, UniProt P14416)", "T1 construct": "In vivo D2 occupancy can be determined using finctional brain imaging technologies such as Positron Emission Tomography (PET); host or cells: brain of treated patients, in vivo imaging", "T1 sequence (P14416 whole entry)": "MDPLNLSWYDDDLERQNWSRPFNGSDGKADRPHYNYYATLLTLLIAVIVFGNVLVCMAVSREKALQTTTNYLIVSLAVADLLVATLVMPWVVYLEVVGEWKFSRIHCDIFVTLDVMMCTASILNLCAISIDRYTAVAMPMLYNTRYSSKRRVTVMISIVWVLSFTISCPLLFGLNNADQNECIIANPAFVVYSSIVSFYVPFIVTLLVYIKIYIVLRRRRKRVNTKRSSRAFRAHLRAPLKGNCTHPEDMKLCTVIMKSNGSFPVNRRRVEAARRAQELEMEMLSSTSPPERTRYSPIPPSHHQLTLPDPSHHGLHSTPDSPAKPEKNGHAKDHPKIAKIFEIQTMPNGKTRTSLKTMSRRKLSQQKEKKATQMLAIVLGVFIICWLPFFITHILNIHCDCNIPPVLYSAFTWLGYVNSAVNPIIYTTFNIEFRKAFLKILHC", "conditions": "at effective antipsychotic treatment; literature; cited from earlier work"}}}
{"smiles": "c1ccc2c(c1)OCC(C1=NCCN1)O2", "note": "(racemic) [idazoxan, ±-2-(1,4-benzodioxan-2-yl)-d-imidazoline]", "values": [{"measurement": "Ki", "setting": "[1]", "result": "~30", "unit": "nM"}]}
{"smiles": "c1ccc2c(c1)OCC(C1=NCCN1)O2", "note": "(single isomer, unassigned; (+)) [(+)-idazoxan]", "values": [{"measurement": "Affinity towards the α2 autoreceptors, times higher than (−) idazoxan", "setting": "[2]", "result": 40, "unit": "times"}, {"measurement": "Potency in inhibiting p-[3H]aminoclonidine binding, times more potent than the other enantiomer", "setting": "[3]", "result": "7-8 times"}]}
{"smiles": "Cc1cc2c(s1)Nc1ccccc1N=C2N1CCN(C)CC1", "note": "[olanzapine]", "values": [{"measurement": "Reduction of olanzapine dose required for effective antipsychotic effect through adjunct idazoxan", "setting": "[4]", "result": "~50", "unit": "%"}]}
{"smiles": "OCCOCCN1CCN(C2=Nc3ccccc3Sc3ccccc32)CC1", "note": "[quetiapine]", "values": [{"measurement": "Fold less affinity for the α2 adrenergic receptor than for the dopamine D2 receptor", "setting": "[5]", "result": "6-16 fold"}]}
{"smiles": "Cc1nc2n(c(=O)c1CCN1CCC(c3noc4cc(F)ccc34)CC1)CCCC2", "note": "[risperidone]", "values": [{"measurement": "In vivo D2 occupancy", "setting": "[6]", "result": "≥ 70", "unit": "%"}, {"measurement": "Fold less affinity for the α2 adrenergic receptor than for the dopamine D2 receptor", "setting": "[5]", "result": "2-16 fold"}]}
{"smiles": "O=C1Cc2cc(CCN3CCN(c4nsc5ccccc45)CC3)c(Cl)cc2N1", "note": "[ziprasidone]", "values": [{"measurement": "Fold less affinity for the α2 adrenergic receptor than for the dopamine D2 receptor", "setting": "[5]", "result": 100, "unit": "fold"}]}
